Consider 20 sequences from patent publication US11945881B2, “Neoantigens expressed in ovarian cancer and their uses” (Janssen Biotech, Inc., priority 2020, dated 2024).

Experiment [1] has as its system CD8+ T cells. In words: exogenous autologous normal donor restimulation assay, TNFα/IFNγ double positive CD8+ T cells by flow cytometry. The following applies: for Fold change (CD8+) vs. DMSO: maximum CD8+ T-cell response (TNFα and IFNγ); for Fold change (CD8+) vs. DMSO / Frequency (TNFα + IFNγ + CD8 T cells): donor independent, peptide pool 10 μg/mL, healthy donors; for Frequency (TNFα + IFNγ + CD8 T cells): maximum CD8+ T-cell response; for Immunogenic (yes/no): positive if CD8+ and/or CD4+ double positive TNFα/IFNγ frequency >=3-fold over DMSO and at least 0.01%. The experiment is classed as cell-based, human. As to the method:
(§1) The immunogenicity of neoantigens was assessed using the exogenous autologous normal donor restimulation assay. […] The lyophilized peptides were solubilized in 100% DMSO.
(§2) CD1c+ Dendritic Cells (CD1c+DC) isolated from human healthy PBMCs were thawed using media (IMDM (Gibco) supplemented with glutamine, HEPES, 5% human serum (Sigma), and 1× Pen-Strep). DC cells were resuspended in media supplemented with IL-4 (Peprotech, 20 ng/mL) and GM-CSF (Gibco, 20 ng/mL), plated in 6 well microplates, and rested overnight at 37° C. and 5% CO2 incubator. The following day, DC cells were counted and plated in a 96 well round bottom microplate at a concentration of 30,000 viable cells per well. Lyophilized neoantigen peptide pools (15-mer peptides with 8-mer overlapping peptide sequences) were solubilized in 100% DMSO with a stock concentration of 20 mg/mL Neoantigen peptides pools were added to DCs for a final concentration of 10 μg/mL and rested for 2 hours at 37° C. and 5% CO2 incubator. CEF Peptide Pool “Plus” (Cellular Technologies, Ltd.) was utilized as a positive control (each viral peptide at a final concentration of 4 ug/ml) and DMSO at the same final concentration (0.05%) as the experimental peptides was utilized as a negative control. After 2 hours, DC cells were irradiated with 50 gray of ionizing radiation. Autologous CD3+ Pan-T cells isolated from human normal PBMCs were thawed using media. Following irradiation, autologous Pan-T cells were added to the irradiated DCs at 300,000 viable cells per well. Human IL-15 (Peprotech) was added to all wells at final concentration of 10 ng/ml. Plates were incubated at 37° C. and 5% CO2 incubator for a total of 12 days. Media was refreshed every 2-3 days with IL-15 (R&D System, 10 ng/mL final concentration) and IL-2 (R&D systems, 10 IU/mL final concentration).
(§3) On Day 11, cells were re-stimulated with identical experimental peptide pools or controls, at same concentration as peptide stimulation on Day 1. Protein Inhibitor Cocktail (eBioscience) was added to every well and plate was incubated overnight for 14-16 hours at 37° C. and 5% CO2 incubator. On Day 12, cells were stained for surface and intracellular flow cytometry analysis. The cells were washed with PBS and stained with Live/Dead Fixable Aqua Dead Cell stain (Thermo-Fisher). Following the live/dead stain, cells were blocked using Biotin-Fre Fc Receptor Blocker (Accurate Chemical & Scientific Corp). Extracellular cellular flow panel ([…] per well in 50 μL) consisted of CD3 PerCP-Cy5.5 (Biolegend), CD4 BV421 (Biolegend), and CD8 APC-Cy7 (Biolegend). After extracellular staining, cells were fixed and permeabilized using Foxp3/Transcription Factor Staining Buffer Set (eBioscience) and stained for intracellular proteins (1:50 dilution) using TNFα FITC (R&D Systems) and IFNγ BV785 (Biolegend). Cells were washed and resuspended in stain buffer, analyzed, and recorded in a BD Celesta flow cytometer.
(§4) Flow cytometry analysis was conducted on FlowJo v10.6 software. Cells were gated on live, singlet, CD3+, CD4+ and CD8+ T cells. The CD8+ and CD4+ T cells were analyzed for TNFα and IFNγ expression.
(§5) The immunogenicity of neoantigens was first investigated in 9-16 healthy donors.
(In flow cytometry, cells or beads pass a laser one at a time.)

The test system of experiment [2] is CD4+ T cells. The experiment can be described thus: exogenous autologous normal donor restimulation assay, TNFα/IFNγ double positive CD4+ T cells by flow cytometry. The experiment is classed as cell-based, human. The following applies: donor independent, peptide pool 10 μg/mL, healthy donors; for Fold change (CD4+) vs. DMSO: maximum CD4+ T-cell response (TNFα and IFNγ); for Frequency (TNFα + IFNγ + CD4 T cells): maximum CD4+ T-cell response. As to the method: as §1, §2, §3, §4, §5

On to “LRSLAGTYGRSPSPATRRKRSWSC [FUS25, neoantigen, gene fusion CLCF1->POLD4]”, for which, in experiment [1], the “Fold change (CD8+) vs. DMSO” value was determined as 2.79 fold, the “Frequency (TNFα + IFNγ + CD8 T cells)” value stood at 0.048% and the “Immunogenic (yes/no)” value is “Yes”. In experiment [2], the “Fold change (CD4+) vs. DMSO” value amounted to 16.49 fold and the “Frequency (TNFα + IFNγ + CD4 T cells)” value worked out at 0.059%.
As for “LSPGGACVDIDECDRQ [AS81, neoantigen, alternative splicing of FBN3]”, in experiment [1], the “Fold change (CD8+) vs. DMSO” value is recorded as 10.83 fold, the “Frequency (TNFα + IFNγ + CD8 T cells)” value is 0.1% and the “Immunogenic (yes/no)” value is recorded as “Yes”. In experiment [2], the “Fold change (CD4+) vs. DMSO” value stood at 3.22 fold and the “Frequency (TNFα + IFNγ + CD4 T cells)” value worked out at 0.028%.
For “MAGGVLRRLLCREPDRDGDKGASREETVVPLHIGDPVVLPGIGQCYSALF [FUS1, neoantigen, gene fusion TSTD1->F11R]”, in that order: 2.79 fold, 0.06%, “yes”, 5.43 fold and 0.011%.
Taken in the same sequence, the figures for “MHRKLQARSPSLCTGHPPQAA [AS75, neoantigen, alternative splicing of TSPAN10]” were 2.64 fold, 0.16%, “Yes”, 3.46 fold and 0.014%.
For “MPGHGAICSGSSRQPD [AS82, neoantigen, alternative splicing of IMPG2]”, in that order: 13.55 fold, 0.82%, “Yes”, 5.88 fold and 0.026%.
Turning to “MSQESDKNGLSSRSWMNTWILPEVL [AS102, neoantigen, alternative splicing of GRHL2]”, in experiment [1], the “Fold change (CD8+) vs. DMSO” value is given as 5.65 fold, the “Frequency (TNFα + IFNγ + CD8 T cells)” value is 0.096% and the “Immunogenic (yes/no)” value is recorded as “Yes”. For the same sequence, in experiment [2], the “Fold change (CD4+) vs. DMSO” value is on record as 4.47 fold and the “Frequency (TNFα + IFNγ + CD4 T cells)” value amounted to 0.029%.
Regarding “NANSRLPEACEK [AS100, neoantigen, alternative splicing of FRYL]”, in experiment [1], the “Fold change (CD8+) vs. DMSO” value was found to be 63.36 fold, the “Frequency (TNFα + IFNγ + CD8 T cells)” value was determined as 0.099% and the “Immunogenic (yes/no)” value is reported as “Yes”. Also, in experiment [2], the “Fold change (CD4+) vs. DMSO” value is listed as 6.02 fold and the “Frequency (TNFα + IFNγ + CD4 T cells)” value is 0.039%.
For “NIEDVATEDGRHGGCHHGPGR [AS71, neoantigen, alternative splicing of SLC6A2]”, in that order: 11.78 fold, 0.074%, “Yes”, 10.95 fold and 0.038%.
Taken in the same sequence, the figures for “NLQLLTQGYSGIWRYP [AS118, neoantigen, alternative splicing of SAMD12]” were 2.42 fold, 0.038%, “Yes”, 5.25 fold and 0.034%.
Regarding “NYGNLFSLAGSLHFTA [AS89, neoantigen, alternative splicing of ZNF727]”, in experiment [1], the “Fold change (CD8+) vs. DMSO” value amounted to 142.04 fold, the “Frequency (TNFα + IFNγ + CD8 T cells)” value was 0.26% and the “Immunogenic (yes/no)” value was “Yes”. For the same sequence, in experiment [2], the “Fold change (CD4+) vs. DMSO” value is on record as 7.02 fold and the “Frequency (TNFα + IFNγ + CD4 T cells)” value is 0.061%.
Taken in the same sequence, the figures for “PGHGAICREEV [AS62, neoantigen, alternative splicing of IMPG2]” were 28.06 fold, 0.055%, “Yes”, 14.25 fold and 0.063%.
For “PSLSTRLTSKDPQPLQSHYWGLIGNDPFLRSKKRVN [AS4, neoantigen, alternative splicing of MUC16]”, in that order: 7.55 fold, 0.068%, “Yes”, 11.53 fold and 0.093%.
For “PSPSTPNHSQQAICHPGRRP [AS105, neoantigen, alternative splicing of MPRIP]”, in that order: 1.76 fold, 0.02%, “Yes”, 14.72 fold and 0.14%.
With “PSSLPGPTGKYQSMVFGAWLMSVNISVYTLLEHG [AS140, neoantigen, alternative splicing of MUC16]”, in experiment [1], the “Fold change (CD8+) vs. DMSO” value was 115.04 fold, the “Frequency (TNFα + IFNγ + CD8 T cells)” value is 0.22% and the “Immunogenic (yes/no)” value is reported as “Yes”. Besides, in experiment [2], the “Fold change (CD4+) vs. DMSO” value turned out to be 79.1 fold and the “Frequency (TNFα + IFNγ + CD4 T cells)” value was 0.14%.
For “QATPSSILCFRLACLWLLRKGLLDLTW [AS15, neoantigen, alternative splicing of IMPG2]”, in that order: 48.05 fold, 0.08%, “Yes”, 11.36 fold and 0.023%.
As to “QHLQQEACVTSAGKQS [AS19, neoantigen, alternative splicing of PLEKHG4B]”, in experiment [1], the “Fold change (CD8+) vs. DMSO” value worked out at 182.29 fold, the “Frequency (TNFα + IFNγ + CD8 T cells)” value came to 0.7% and the “Immunogenic (yes/no)” value is “Yes”. In addition, in experiment [2], the “Fold change (CD4+) vs. DMSO” value is given as 5.69 fold and the “Frequency (TNFα + IFNγ + CD4 T cells)” value came out at 0.06%.
Take “QLNLSETQFAQYAEIV [FUS2, neoantigen, gene fusion VAX2->ATP6V1B1]”: in experiment [1], the “Fold change (CD8+) vs. DMSO” value stood at 593.75 fold, the “Frequency (TNFα + IFNγ + CD8 T cells)” value turned out to be 2.28% and the “Immunogenic (yes/no)” value is listed as “yes”. Also, in experiment [2], the “Fold change (CD4+) vs. DMSO” value worked out at 21.76 fold and the “Frequency (TNFα + IFNγ + CD4 T cells)” value came to 0.026%.
Taken in the same sequence, the figures for “QTDFAYDSGKRLGWGRVACDQVFS [AS3, neoantigen, alternative splicing of ETV4]” were 133.13 fold, 0.43%, “Yes”, 7.31 fold and 0.1%.
For the sequence “QTQEETDRDRGSWSCAVA [AS64, neoantigen, alternative splicing of IQGAP3]”, in experiment [1], the “Fold change (CD8+) vs. DMSO” value was found to be 33.44 fold, the “Frequency (TNFα + IFNγ + CD8 T cells)” value stood at 0.21% and the “Immunogenic (yes/no)” value was “Yes”. Also, in experiment [2], the “Fold change (CD4+) vs. DMSO” value is listed as 5.43 fold and the “Frequency (TNFα + IFNγ + CD4 T cells)” value is 0.024%.
Regarding “RASCGAQKACDVNQLTSS [FUS17, neoantigen, gene fusion C20orf204->TCEA2]”, in experiment [1], the “Fold change (CD8+) vs. DMSO” value is listed as 13.53 fold, the “Frequency (TNFα + IFNγ + CD8 T cells)” value is 0.23% and the “Immunogenic (yes/no)” value is given as “Yes”. Further, in experiment [2], the “Fold change (CD4+) vs. DMSO” value was 6.91 fold and the “Frequency (TNFα + IFNγ + CD4 T cells)” value turned out to be 0.045%.
